Measurements reported in patent publication US6093742A, “Inhibitors of p38” (Vertex Pharmaceuticals, Inc., priority 1997, dated 2000).

Target: T1, p38 (Homo sapiens, UniProt Q16539)
T1 construct: made in house; host or cells: Trichoplusia ni (Tn-368) High-Five insect cells infected with recombinant baculovirus (virus made in Sf9)
Assay: p38 inhibition assay: inhibition of phosphorylation of EGF receptor peptide
Format: biochemical
Conditions: activated p38 (5 nM), EGF receptor peptide 200 μM, ATP 100 μM, 30 min at 30° C., pH 7.6, HPLC
Text: Two splice variants of human p38 kinase, CSBPl and CSBP2, have been identified. Specific oligonucleotide primers were used to amplify the coding region of CSBP2 cDNA using a HeLa cell library (Stratagene) as a template. The polymerase chain reaction product was cloned into the pET-15b vector (Novagen). The baculovirus transfer vector, pVL-(His)6-p38 was constructed by subcloning a XbaI-BamHI fragment of pET15b-(His)6-p38 into the complementary sites in plasmid pVL1392 (Pharmingen).
P38 was activated by combining 0.5 mg/ml p38 with 0.005 mg/ml DD-double mutant MKK6 in Buffer B+10 mM MgCl2, 2 mM ATP, 0.2 mM Na2VO4 for 30 minutes at 20° C. The activation mixture was then loaded onto a 1.0×10 cm MonoQ column (Pharmacia) and eluted with a linear 20 column volume gradient to 1.0 M NaCl in Buffer B. The activated p38 eluted after the ADP and ATP. The activated p38 peak was pooled and dialyzed against buffer B+0.2 mM Na2VO4 to remove the NaCl. The dialyzed protein was adjusted to 1.1M potassium phosphate by addition of a 4.0M stock solution and loaded onto a 1.0×10 cm HIC (Rainin Hydropore) column previously equilibrated in Buffer D (10% glycerol, 20 mM β-glycerophosphate, 2.0 mM DTT)+1.1MK2HPO4. The protein was eluted with a 20 column volume linear gradient to Buffer D+50 mM K2HPO4. The double phosphorylated p38 eluted as the main peak and was pooled for dialysis against Buffer B+0.2 mM Na2VO4. The activated p38 was stored at -70° C.
Inhibition of Phosphorylation of EGF Receptor Peptide
This assay was carried out in the presence of 10 mM MgCl2, 25 mM β-glycerophosphate, 10% glycerol and 100 mM HEPES buffer at pH 7.6. For a typical IC50 determination, a stock solution was prepared containing all of the above components and activated p38 (5 nM). The stock solution was aliquotted into vials. A fixed volume of DMSO or inhibitor in DMSO (final concentration of DMSO in reaction was 5%) was introduced to each vial, mixed and incubated for 15 minutes at room temperature. EGF receptor peptide, […], a phosphoryl acceptor in p38-catalyzed kinase reaction (1), was added to each vial to a final concentration of 200 μM. The kinase reaction was initiated with ATP (100 μM) and the vials were incubated at 30° C. After 30 minutes, the reactions were quenched with equal volume of 10% trifluoroacetic acid (TFA).
The phosphorylated peptide was quantified by HPLC analysis. Separation of phosphorylated peptide from the unphosphorylated peptide was achieved on a reverse phase column (Deltapak, 5 μm, C18 100D, part no. 011795) with a binary gradient of water and acteonitrile, each containing 0.1% TFA. IC50 (concentration of inhibitor yielding 50% inhibition) was determined by plotting the % activity remaining against inhibitor concentration.

T1 sequence (Q16539 whole entry): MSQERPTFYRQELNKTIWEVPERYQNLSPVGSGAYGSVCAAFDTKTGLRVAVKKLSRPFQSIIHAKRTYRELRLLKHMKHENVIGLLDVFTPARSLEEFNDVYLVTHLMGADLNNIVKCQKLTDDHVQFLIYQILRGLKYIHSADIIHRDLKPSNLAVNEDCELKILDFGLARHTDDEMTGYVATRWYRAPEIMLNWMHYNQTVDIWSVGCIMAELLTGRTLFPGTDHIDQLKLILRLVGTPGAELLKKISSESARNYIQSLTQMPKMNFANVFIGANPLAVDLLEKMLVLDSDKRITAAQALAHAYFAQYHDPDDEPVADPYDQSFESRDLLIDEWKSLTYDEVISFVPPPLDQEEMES

With `COc1cc(Cl)c(C)cc1NC(=O)Nc1ccccc1` [Compound 4] the IC50 was 100 nM.
With `COc1cc(OC)c(NC(=O)Nc2ccc(Oc3ccccc3)cc2)cc1Cl` [Compound 20] the IC50 was 8000 nM.
Work on `O=C(Nc1cccc(C(=O)O)c1)Nc1ccc(Cl)c(Cl)c1` [Compound 63] yielded an IC50 of 5800 nM.
For `COc1cc(OC)c(NC(=O)Nc2ccccc2)cc1Cl` [Compound 12], the IC50 was 380 nM.
Work on `COc1cc(OC)c(NC(=O)Nc2ccccc2)cc1Cl` [Compound 25] yielded an IC50 of 1000 nM.
`O=C(Nc1ccc(Cl)c(Cl)c1)Nc1ccccc1Cl` [Compound 122] was tested, and the IC50 was 15100 nM.
For `NC(=O)c1ccccc1NC(=O)Nc1ccc(Cl)c(Cl)c1` [Compound 107], the IC50 was 100 nM.
For `COc1cc(OC)c(NC(=O)Nc2cccc(Oc3ccccc3)c2)cc1Cl` [Compound 22], the IC50 was 1900 nM.
Compound `COc1cc(OC)c(NC(=O)Nc2cc(C)ccc2Cl)cc1Cl` [Compound 37] has an IC50 of 5100 nM.
In the case of `CCOc1ccccc1NC(=O)Nc1ccc(Cl)c(Cl)c1` [Compound 121], the IC50 is reported as 2200 nM.
Work on `COc1cc(OC)c(NC(=O)Nc2ccc(Cl)cc2F)cc1Cl` [Compound 30] yielded an IC50 of 1200 nM.
Compound `COC(=O)c1ccccc1NC(=O)Nc1ccc(Cl)c(Cl)c1` [Compound 119] has an IC50 of 6300 nM.
`Cc1cc(Cl)c([N+](=O)[O-])cc1NC(=O)Nc1ccccc1` [Compound 3] gave an IC50 of 370 nM.
With `COc1cc(OC)c(NC(=O)Nc2ccc(F)cc2)cc1Cl` [Compound 29] the IC50 was 1450 nM.
`O=C(Nc1ccccc1)Nc1ccc(Cl)c(Cl)c1` [Compound 62] gave an IC50 of 5600 nM.
`COc1cc(OC)c(NC(=O)Nc2ccc(Cl)c(Cl)c2)cc1Cl` [Compound 24] was tested, and the IC50 was 500 nM.
`COc1cc([N+](=O)[O-])c(C)cc1NC(=O)Nc1ccccc1` [Compound 13] was tested, and the IC50 was 140 nM.
With `COc1cc(C)cc(NC(=O)Nc2ccc(Cl)c(Cl)c2)c1` [Compound 118] the IC50 was 14700 nM.
In the case of `COc1cc(OC)c(NC(=O)Nc2ccccc2O)cc1Cl` [Compound 28], the IC50 is reported as 7400 nM.
Compound `O=C(Nc1ccc(Cl)c(Cl)c1)Nc1ccc2c(c1)OCCO2` [Compound 126] has an IC50 of 5600 nM.
In the case of `Cc1cc(NC(=O)Nc2ccccc2)c(Cl)cc1F` [Compound 15], the IC50 is reported as 5800 nM.
Work on `Cc1cc(C)c(NC(=O)Nc2ccccc2)cc1C` [Compound 10] yielded an IC50 of 4200 nM.
Work on `O=C(Nc1ccc(Cl)c(Cl)c1)Nc1cccc2cccnc12` [Compound 131] yielded an IC50 of 6300 nM.
`COc1cc(OC)c(NC(=O)Nc2ccc(F)c(F)c2)cc1Cl` [Compound 33] was tested, and the IC50 was 1820 nM.
`O=C(Nc1ccc(Cl)c(Cl)c1)Nc1ccc(Cl)c(Cl)c1` [Compound 64] gave an IC50 of 130 nM.
With `COc1cc(OC)c(NC(=O)Nc2cccc(F)c2)cc1Cl` [Compound 35] the IC50 was 630 nM.
`COc1cc(OC)c(NC(=O)N(CC(=O)O)c2ccccc2)cc1Cl` [Compound 34] showed an IC50 of 19000 nM.
Work on `COc1cc(Cl)c(C)cc1NC(=O)Nc1ccccc1` [Compound 61] yielded an IC50 of 140 nM.
In the case of `COc1cc(OC)c(NC(=O)Nc2ccc3c(c2)OCO3)cc1Cl` [Compound 40], the IC50 is reported as 1500 nM.
For `COc1cc(OC)c(NC(=O)Nc2ccccc2F)cc1Cl` [Compound 31], the IC50 was 500 nM.
`O=C(Nc1ccc(Cl)c(Cl)c1)Nc1ccc(Br)cc1C(=O)O` [Compound 125] showed an IC50 of 8400 nM.
